Test results reported in ChEMBL document CHEMBL4007388, “Synthesis and antiproliferative activity of monocationic arylthiophene derivatives” (Eur J Med Chem, 2017).

Legend:
CCRF-CEM = test: Growth inhibition of human CCRF-CEM cells incubated for 48 hrs by sulforhodamine B assay; format: functional
HL-60(TB) = test: Growth inhibition of human HL-60(TB) cells incubated for 48 hrs by sulforhodamine B assay; format: functional; settings: HL-60, 48 h
MOLT-4 = test: Growth inhibition of human MOLT4 cells incubated for 48 hrs by sulforhodamine B assay; format: functional; settings: MOLT-4, 48 h
RPMI-8226 = test: Growth inhibition of human RPMI8226 cells incubated for 48 hrs by sulforhodamine B assay; format: functional; settings: RPMI-8226, 48 h
SR = test: Growth inhibition of human SR cells incubated for 48 hrs by sulforhodamine B assay; format: functional
HOP-62 = test: Growth inhibition of human HOP62 cells incubated for 48 hrs by sulforhodamine B assay; format: functional; settings: HOP-62, 48 h
HOP-92 = test: Growth inhibition of human HOP92 cells incubated for 48 hrs by sulforhodamine B assay; format: functional; settings: HOP-92, 48 h
NCI-H226 = test: Growth inhibition of human NCI-H226 cells incubated for 48 hrs by sulforhodamine B assay; format: functional; settings: NCI-H226, 48 h
NCI-H23 = test: Growth inhibition of human NCI-H23 cells incubated for 48 hrs by sulforhodamine B assay; format: functional; settings: NCI-H23, 48 h
NCI-H460 = test: Growth inhibition of human NCI-H460 cells incubated for 48 hrs by sulforhodamine B assay; format: functional; settings: NCI-H460, 48 h
NCI-H522 = test: Growth inhibition of human NCI-H522 cells incubated for 48 hrs by sulforhodamine B assay; format: functional; settings: NCI-H522, 48 h
COLO 205 = test: Growth inhibition of human COLO205 cells incubated for 48 hrs by sulforhodamine B assay; format: functional; settings: COLO 205, 48 h
HCT-116 = test: Growth inhibition of human HCT116 cells incubated for 48 hrs by sulforhodamine B assay; format: functional; settings: HCT-116, 48 h
HCT-15 = test: Growth inhibition of human HCT15 cells incubated for 48 hrs by sulforhodamine B assay; format: functional; settings: HCT-15, 48 h
KM12 = test: Growth inhibition of human KM12 cells incubated for 48 hrs by sulforhodamine B assay; format: functional; settings: KM12, 48 h
SW-620 = test: Growth inhibition of human SW620 cells incubated for 48 hrs by sulforhodamine B assay; format: functional; settings: SW-620, 48 h
SF-268 = test: Growth inhibition of human SF268 cells incubated for 48 hrs by sulforhodamine B assay; format: functional; settings: SF-268, 48 h
SF-539 = test: Growth inhibition of human SF539 cells incubated for 48 hrs by sulforhodamine B assay; format: functional; settings: SF-539, 48 h
SNB-19 = test: Growth inhibition of human SNB19 cells incubated for 48 hrs by sulforhodamine B assay; format: functional; settings: SNB-19, 48 h
SNB-75 = test: Growth inhibition of human SNB75 cells incubated for 48 hrs by sulforhodamine B assay; format: functional; settings: SNB-75, 48 h
Malme-3M = test: Growth inhibition of human MALME-3M cells incubated for 48 hrs by sulforhodamine B assay; format: functional
M14 = test: Growth inhibition of human M14 cells incubated for 48 hrs by sulforhodamine B assay; format: functional; settings: M14, 48 h
SK-MEL-28 = test: Growth inhibition of human SK-MEL-28 cells incubated for 48 hrs by sulforhodamine B assay; format: functional; settings: SK-MEL-28, 48 h
SK-MEL-5 = test: Growth inhibition of human SK-MEL-5 cells incubated for 48 hrs by sulforhodamine B assay; format: functional; settings: SK-MEL-5, 48 h
UACC-257 = test: Growth inhibition of human UACC257 cells incubated for 48 hrs by sulforhodamine B assay; format: functional; settings: UACC-257, 48 h
UACC-62 = test: Growth inhibition of human UACC62 cells incubated for 48 hrs by sulforhodamine B assay; format: functional; settings: UACC-62, 48 h
IGROV-1 = test: Growth inhibition of human IGROV1 cells incubated for 48 hrs by sulforhodamine B assay; format: functional; settings: IGROV-1, 48 h
OVCAR-3 = test: Growth inhibition of human OVCAR3 cells incubated for 48 hrs by sulforhodamine B assay; format: functional; settings: OVCAR-3, 48 h
OVCAR-5 = test: Growth inhibition of human OVCAR5 cells incubated for 48 hrs by sulforhodamine B assay; format: functional; settings: OVCAR-5, 48 h
OVCAR-8 = test: Growth inhibition of human OVCAR8 cells incubated for 48 hrs by sulforhodamine B assay; format: functional; settings: OVCAR-8, 48 h
SK-OV-3 = test: Growth inhibition of human SKOV3 cells incubated for 48 hrs by sulforhodamine B assay; format: functional; settings: SK-OV-3, 48 h
786-0 = test: Growth inhibition of human 786-O cells incubated for 48 hrs by sulforhodamine B assay; format: functional; settings: 786-0, 48 h
A498 = test: Growth inhibition of human A498 cells incubated for 48 hrs by sulforhodamine B assay; format: functional; settings: A498, 48 h
ACHN = test: Growth inhibition of human ACHN cells incubated for 48 hrs by sulforhodamine B assay; format: functional
CAKI-1 = test: Growth inhibition of human Caki1 cells incubated for 48 hrs by sulforhodamine B assay; format: functional; settings: CAKI-1, 48 h
RXF 393 = test: Growth inhibition of human RXF393 cells incubated for 48 hrs by sulforhodamine B assay; format: functional; settings: RXF 393, 48 h
SN12C = test: Growth inhibition of human SN12C cells incubated for 48 hrs by sulforhodamine B assay; format: functional
TK-10 = test: Growth inhibition of human TK10 cells incubated for 48 hrs by sulforhodamine B assay; format: functional; settings: TK-10, 48 h
UO-31 = test: Growth inhibition of human UO31 cells incubated for 48 hrs by sulforhodamine B assay; format: functional; settings: UO-31, 48 h
DU-145 = test: Growth inhibition of human DU145 cells incubated for 48 hrs by sulforhodamine B assay; format: functional; settings: DU-145, 48 h
MCF7 = test: Growth inhibition of human MCF7 cells incubated for 48 hrs by sulforhodamine B assay; format: functional; settings: MCF7, 48 h
Hs-578T = test: Growth inhibition of human Hs 578T cells incubated for 48 hrs by sulforhodamine B assay; format: functional
BT-549 = test: Growth inhibition of human BT549 cells incubated for 48 hrs by sulforhodamine B assay; format: functional; settings: BT-549, 48 h
MDA-MB-468 = test: Growth inhibition of human MDA-MB-468 cells incubated for 48 hrs by sulforhodamine B assay; format: functional; settings: MDA-MB-468, 48 h
WI-38 = test: Cytotoxicity against human WI38 cells assessed as reduction in cell viability after 24 hrs by MTT assay; format: cell-based; settings: WI-38, 24 h
WISH = test: Cytotoxicity against human WISH cells assessed as reduction in cell viability after 24 hrs by MTT assay; format: cell-based
Escherichia coli = test: Induction of Escherichia coli genomic DNA cleavage after 1 hr by agarose gel electrophoresis method
[1] = Growth inhibition of human NCI60 cells at 10 uM after 48 hrs by SRB assay relative to control; values are per cent of control; settings: NCI60, 48 h

Q: For `N=C(N)c1ccc(-c2ccc(-c3ccc(F)cc3)s2)cc1`, which GI50 (CCRF-CEM) is on record?
A: The GI50 was 1820 nM.

Q: And the GI50 (HL-60(TB))?
A: Its GI50 is 679 nM.

Q: And the GI50 (MOLT-4)?
A: The GI50 was 1580 nM.

Q: What about the GI50 (RPMI-8226) of the same molecule?
A: The GI50 was 799 nM.

Q: What about the GI50 (SR) of the same molecule?
A: Its GI50 is 307 nM.

Q: What about the GI50 (HOP-62) of the same molecule?
A: The GI50 was 1580 nM.

Q: What about the GI50 (HOP-92) of the same molecule?
A: Its GI50 is 1540 nM.

Q: And the GI50 (NCI-H226)?
A: The GI50 was 2190 nM.

Q: And the GI50 (NCI-H23)?
A: Its GI50 is 1580 nM.

Q: What about the GI50 (NCI-H460) of the same molecule?
A: The GI50 was 392 nM.

Q: What about the GI50 (NCI-H522) of the same molecule?
A: The GI50 was 1870 nM.

Q: And the GI50 (COLO 205)?
A: The GI50 was 204 nM.

Q: What about the GI50 (HCT-116) of the same molecule?
A: Its GI50 is 1580 nM.

Q: What about the GI50 (HCT-15) of the same molecule?
A: Its GI50 is 252 nM.

Q: What about the GI50 (KM12) of the same molecule?
A: Its GI50 is 1340 nM.

Q: What about the GI50 (SW-620) of the same molecule?
A: The GI50 was 386 nM.

Q: And the GI50 (SF-268)?
A: Its GI50 is 1540 nM.

Q: And the GI50 (SF-539)?
A: The GI50 was 1620 nM.

Q: What about the GI50 (SNB-19) of the same molecule?
A: The GI50 was 1930 nM.

Q: And the GI50 (SNB-75)?
A: Its GI50 is 1650 nM.

Q: And the GI50 (Malme-3M)?
A: Its GI50 is 1550 nM.

Q: What about the GI50 (M14) of the same molecule?
A: Its GI50 is 1600 nM.

Q: And the GI50 (SK-MEL-28)?
A: The GI50 was 1570 nM.

Q: What about the GI50 (SK-MEL-5) of the same molecule?
A: Its GI50 is 1600 nM.

Q: What about the GI50 (UACC-257) of the same molecule?
A: The GI50 was 2580 nM.

Q: What about the GI50 (UACC-62) of the same molecule?
A: Its GI50 is 1650 nM.

Q: What about the GI50 (IGROV-1) of the same molecule?
A: Its GI50 is 1790 nM.

Q: And the GI50 (OVCAR-3)?
A: Its GI50 is 1710 nM.

Q: And the GI50 (OVCAR-5)?
A: The GI50 was 1550 nM.

Q: What about the GI50 (OVCAR-8) of the same molecule?
A: Its GI50 is 2110 nM.

Q: And the GI50 (SK-OV-3)?
A: The GI50 was 1610 nM.

Q: What about the GI50 (786-0) of the same molecule?
A: Its GI50 is 1470 nM.

Q: What about the GI50 (A498) of the same molecule?
A: Its GI50 is 1420 nM.

Q: What about the GI50 (ACHN) of the same molecule?
A: The GI50 was 1560 nM.

Q: What about the GI50 (CAKI-1) of the same molecule?
A: The GI50 was 1670 nM.

Q: And the GI50 (RXF 393)?
A: The GI50 was 1480 nM.

Q: And the GI50 (SN12C)?
A: The GI50 was 1590 nM.

Q: And the GI50 (TK-10)?
A: Its GI50 is 1850 nM.

Q: And the GI50 (UO-31)?
A: Its GI50 is 1580 nM.

Q: What about the GI50 (DU-145) of the same molecule?
A: Its GI50 is 1630 nM.

Q: What about the GI50 (MCF7) of the same molecule?
A: Its GI50 is 323 nM.

Q: And the GI50 (Hs-578T)?
A: Its GI50 is 2160 nM.

Q: What about the GI50 (BT-549) of the same molecule?
A: The GI50 was 1650 nM.

Q: What about the GI50 (MDA-MB-468) of the same molecule?
A: Its GI50 is 1260 nM.

Q: What about the IC50 (WI-38) of the same molecule?
A: The IC50 was 197000 nM.

Q: And the IC50 (WISH)?
A: Its IC50 is 232000 nM.

Q: What about the Activity (Escherichia coli) of the same molecule?
A: The Activity was “Dose-dependent effect”.

Q: What about the growth percent at 10 µM [1] of the same molecule?
A: The growth percent at 10 µM was -78.7%.
